Values joined by “and” are separate entries in the source; they are usually repeats but may differ in a detail not shown here. Equal values may be shown once. Read-outs that look alike come from different tables or passages of the source.
Experiments:
[1] = test system: Jurkat cells (human T cell leukemia line); assay: DNA fragmentation (DNA laddering); type: cell-based
From the text: A late stage characteristic of apoptosis is internucleosomal DNA cleavage that results in a distinctive ladder pattern that can be visualized by gel electrophoresis.

[2] = test system: MES-SA/Dx5 (Taxol Resistant) human uterine sarcoma; assay: Drug resistant cell line pair, cytotoxicity (Example 10B); type: cell-based
From the text: (§1) 1) Human Uterine Sarcoma Tumor Cell Line Pair: MES-SA (Taxol Sensitive) and MES-SA/Dx5 (Taxol Resistant).

[3] = test system: HL-60/MX2 multidrug resistant; assay: Cell growth inhibition assay, resazurin (Example 11); type: cell-based, human
Protocol: Human uterine sarcoma (MES-SA; CRL-1976), its multidrug resistant derivative (MES-SA/Dx5; CRL-1977), human acute promyelocytic leukemia cells (HL-60; CCL-240) and its multidrug resistant derivative (HL-60/MX2; CRL-2257) were purchased from ATCC and maintained in appropriate culture media. The cells were cultured in an incubator at 37° C. in 5% CO2 and 95% humidified air.
For cell growth inhibition assays, MES-SA and MES-SA/Dx5 cells were both seeded at 3×10^3 cells/well in 90 μl complete media into 96 well (Corning; 3904) black-walled, clear-bottom tissue culture plates and the plates were incubated overnight to allow cells to establish and enter log phase growth. HL-60 and HL-60/MX2 cells were both seeded at 5×10^4 cells/well in 90 μl complete media into 96 well plates on the day of compound addition. 20 mM stock solutions of the compounds were prepared in 100% DMSO and stored at −80° C. […] Ten μl volumes of the 10× serial dilutions were added to the test wells in triplicate and the plates returned to the incubator for 48 hours. The final concentration of DMSO was 0.25% in all samples.
(§2) Following 48 hours of drug exposure, 10 μl of 0.2 mg/ml resazurin (obtained from Sigma-Aldrich Chemical Co.) in Mg^2+, Ca^2+ free phosphate buffered saline was added to each well and the plates were returned to the incubator for 3-6 hours. […] Resazurin dye in medium without cells was used to determine the background, which was subtracted from the data for all experimental wells.
HL-60/MX2 is a multidrug resistant tumor cell line derived from the human promyelocytic leukemia cell line, HL-60 and expresses reduced topoisomerase II activity. The data presented in Table 20 summarize the growth inhibitory effects of NPI-2421, NPI-2463, NPI-2503, NPI-2504 and NPI-2506 against HL-60 and its multidrug resistant derivative HL-60/MX2. Mitoxantrone, the topoisomerase II targeting agent was included as a control.

Jurkat cells = assay: cells; type: cell-based
[4] = test system: HL-60/MX-2 (Mitoxantrone-Resistant); assay: Drug resistant cell line pair, cytotoxicity (Example 10B); type: cell-based, human; details: HL-60 Resistant IC50 relative to HL-60 Sensitive
From the text: 2) Human Acute Promyelocytic Leukemia Cell Line Pair: HL-60 (Mitoxantrone-Sensitive) and HL-60/MX-2 (Mitoxantrone-Resistant)

HuVEC = assay: Action on microtubule function, α-tubulin staining; details: 2 μM, thirty minutes exposure
Candida albicans = assay: Antifungal susceptibility testing, broth dilution (MIC/MFC); type: cell-based
Protocol: (§3) Specifically, disclosed compounds were evaluated alongside commercially available microtubulin inhibitors as well as recognized antifungal agents.
(§4) Microorganisms against which these compounds were tested included: Candida albicans, Candida glabrata, Aspergillus fumigatus, Trichophyton rubrum, Trichophyton mentagrophytes, Epidermophyton floccosum. With the exception of Candida glabrata (one isolate), two isolates of each species were tested.
(§5) The minimum lethal concentration (MLC) was determined by plating […] from the MIC concentration and each concentration above the MIC. […] When a MIC was obtained, a minimum fungicidal concentration (MFC) was determined to assess the fungistatic/fungicidal nature of the compound.

Candida glabrata = assay: as above; type: cell-based; details: Nakaseomyces glabratus; C. glabrata; read-out: MIC
Protocol: as §3, §4, §5

MAP-rich microtubules = assay: Microtubule mean length distributions, transmission electron microscopy; type: biochemical, bovine; details: in words
Protocol: Transmission electron microscopy was used to determine the mean length distribution of microtubules in the absence or presence of tested agent. At 75 minutes and prior to sedimentation, 10 μl aliquots from the polymer mass experiments were fixed by dilution into 290 μl PEM100-buffered 0.2% glutaraldehyde. Thirty microliters of fixed sample was settled onto formvar-coated 150 ICG mesh electron microscope grids for 90 seconds. Excess sample was wicked off with Whatman filter paper. Thirty microliters of cytochrome C (1 mg/ml) was applied for 30 seconds to enhance protofilament resolution and facilitate negative staining. Uranyl acetate (1.5%) was applied for 20 seconds and the excess was wicked off Grids were viewed in a Jeol electron microscope-1200 EX11 at 2000× and 30,000× magnification. The Zeiss MOPIII was used to determine microtubule length distributions and mean lengths for at least 100 microtubules per sample.

HT-29 human colon cells = assay: Tumor cytotoxicity assay, resazurin fluorescence, 48 h (Example 6); type: cell-based
Aspergillus fumigatus = assay: Antifungal susceptibility testing, broth dilution (MIC/MFC); type: cell-based; details: Aspergillus fumigatus, read-out: MIC
Protocol: as §3, §4, §5

Trichophyton rubrum = assay: as above; type: cell-based; details: in words
Protocol: as §3, §4, §5

[5] = test system: Trichophyton mentagrophytes; assay: as above; type: cell-based; details: in words
Protocol: Specifically, disclosed compounds were evaluated alongside commercially available microtubulin inhibitors as well as recognized antifungal agents. […].
as §4
Drug concentrations were 0.03-16 μg/ml for the investigational compounds, 0.015-8 μg/ml for itraconazole and griseofulvin.
as §5, with “compound. […] The compound is scored as fungistatic if the cells are able to resume growth and fungicidal if no regrowth is possible because the compound had killed the organisms.” for “compound.”

[6] = test system: PC-3 prostatic adenocarcinoma cells; assay: Tumor cytotoxicity assay, resazurin fluorescence, 48 h (Example 6); type: cell-based, human; details: Homo sapiens; Table 2; read-out: EC50 (nM) PC-3
Protocol: 10× concentrated serial dilutions of the two compounds were prepared in appropriate culture medium for final concentrations ranging from 2.0×10^−5 M to 2.0×10^−10 M. Ten μl volumes of the 10× serial dilutions were added to the test wells in triplicate and the plates returned to the incubator for 48 hours.
as §2, with “exposure” for “exposure,”, “PBS” for “phosphate buffered saline”, “3-4” for “3-6”, “dye” for “dye in medium”, “wells. The data were analyzed using Prism software (GraphPad Software).” for “wells.”
PC-3, a human prostate adenocarcinoma, was maintained in F12K complete medium (F12K medium supplemented with 10% FBS; 2 mM Glutamine; 1% HEPES; and Pen/Strep at 100 IU/ml and 100 µg/ml, respectively).

[7] = test system: P388 murine leukemia cells; assay: Cytotoxic effect in P388 cells; type: cell-based; details: Mus musculus, P388, read-out: IC50 (nM) P-388; Table 2
From the text: The cytotoxic effects of phenylahistin, dehydrophenylahistin and various derivatives of dehydrophenylahistin were examined in P388 murine leukemia cells, HT-29 human colon cells, and PC-3 prostatic adenocarcinoma cells.

[8] = test system: MCF-7/ADR (Taxol Resistant) human breast carcinoma; assay: Drug resistant cell line pair, cytotoxicity (Example 10B); type: cell-based
From the text: (§6) 3). Human Breast Carcinoma Cell Line Pair: MCF-7 (Taxol Sensitive) and MCF-7/ADR (Taxol Resistant)

[9] = test system: MCF-7 (Taxol Sensitive) human breast carcinoma; assay: as above; type: cell-based
From the text: as §6

[10] = test system: MES-SA (Taxol Sensitive) human uterine sarcoma; assay: as above; type: cell-based; details: IC50 CsA Pretreat relative to No CsA
From the text: as §1

[11] = test system: A549 human non small cell lung tumor; assay: A549 Human Lung Tumor Xenograft Model; type: in vivo, nude mice
Protocol: (§7) Animals used were (exceptions are indicated for individual studies): female nude mice (nu/nu) between 5 and 6 weeks of age (˜20 g, Harlan); group size was 9-10 mice per group unless otherwise indicated.
(§8) Selected novel compounds were administered as monotherapy via the intraperitoneal (i.p.) route at the doses indicated for the individual study; for the combination studies the selected reference chemotherapy agents were injected 15-30 min prior to the compound.
(§9) Saline dilutions are used to achieve the injection concentrations used for the reference compounds.
Animals were implanted s.c. by trocar with fragments of A549 tumors harvested from s.c. growing tumors in nude mice hosts. When the tumor size reached 5 mm×5 mm (about 10-17 days) the animals were matched into treatment and control groups.

MCF-7 human breast tumor = assay: MCF-7 Human Breast Tumor Xenograft Model; type: in vivo, nude mice; details: Breast MCF-7 (2 studies); Taxotere Days 1, 3, 5 alone
Protocol: as §7, §8, §9
Female nude mice (˜20 g) were implanted s.c. with 21-day release estrogen (0.25 mg) pellets 24 hours prior to the s.c. implantation with MCF-7 tumor fragments (harvested from s.c. tumors in nude mice hosts). The study then proceeded as described for the HT-29 model, using taxotere as the standard chemotherapy agent.
In this model unless otherwise noted for the individual study, the novel compounds were injected via the intraperitoneal route daily on Days 1-5, inclusive (qdx5); taxotere was administered intravenously on Days 1, 3 and 5 (qodx3).
The doses of the compounds were administered on Days 1, 2, 3, 4, and 7; Taxotere was administered on Days 1, 3 and 7.

[12] = test system: DU-145 human prostate tumor; assay: DU-145 Human Prostate Tumor Xenograft Model; type: in vivo, nude mice; details: taxotere alone
Protocol: When the tumors reached 5 mm×5 mm (at about 13-17 days) the animals were matched into treatment and control groups.
In this model unless otherwise noted for the individual study, test compounds were administered via the intraperitoneal route on Days 1, 3, 5, 8 and 11 (q3dx5); taxotere was administered intravenously on Days 1, 3 and 5 (q2dx3).

[13] = Candida albicans, C. albicans 90028, read-out: MIC
[14] = Lung A549 (1 study), Taxotere Days 1, 3, 5 alone

Protocol for human hepatic P450s: In the recent his study, (±)-phenylahistin was treated with rat hepatic microsome or human hepatic P450s.

In the case of “phenylahistin [halimide, reference compound]”, the “DNA laddering potency compared with KPU-2” value [1] is reported as “much less potent”.

In the case of O=C1c2c(O)ccc(O)c2C(=O)c2c(NCCNCCO)ccc(NCCNCCO)c21 [mitoxantrone, Mitoxantrone, reference compound], the “reduced susceptibility of the MES-SA/DX5 cell line” value ([2]; vs MES-SA) is reported as 20 fold, the Fold change ([3]; ratio of EC50 values (HL-60/MX2:HL-60)) is reported as 26 and the “less active against the resistant HL-60/MX2 cells” value ([3]; vs HL-60) is reported as ~26 times. The IC50 (Jurkat cells; Homo sapiens, Jurkat, read-out: Cytotoxicity Potency IC50) was 41 nM, the “Cytotoxicity Efficacy % Cell Death” value (Jurkat cells; human) was 99% and the “Ratio to Sensitive” value [4] was 24.1.

For COc1cc2c(c(OC)c1OC)-c1ccc(OC)c(=O)cc1[C@@H](NC(C)=O)CC2 [Colchicine], the “microtubule depolymerization in HuVEC cells” value (HuVEC) was “induced microtubule depolymerization”, the MIC (Candida albicans; C. albicans 10231) was >128 µg/mL and the MIC (Candida albicans; [13]) was > 128 µg/mL. The MIC (Candida glabrata) was > 128 µg/mL and the MT nucleation (MAP-rich microtubules) was “did not affect MT nucleation”.

C=CC(C)(C)c1[nH]cnc1/C=c1\[nH]c(=O)/c(=C/c2ccccc2)[nH]c1=O [KPU-1, Dehydrophenylahistin] gave an EC50 (HT-29 human colon cells; Homo sapiens, HT-29, Table 2, read-out: EC50 (nM) HT-29) of 48 nM, an EC50 (HT-29 human colon cells; Homo sapiens, HT-29, Table 5, synthetic potent dehydroPLH derivatives, read-out: EC50) of 48 nM and an EC50 (HT-29 human colon cells; Table 6, proliferation of HT-29 cells, read-out: EC50) of 48 nM. The MIC (Aspergillus fumigatus; A. fumigatus isolate #1) was > 16 µg/mL, the MIC (Aspergillus fumigatus; A. fumigatus isolate #2) was > 16 µg/mL and the MIC (Candida albicans; [13]) was > 68 µg/mL. The “antifungal potency versus T. rubrum” value (Trichophyton rubrum) was “significantly less potent than the other compounds”, the MIC (Candida glabrata) was > 68 µg/mL and the “DNA laddering potency compared with KPU-2” value [1] was “much less potent”. For the same compound, the “antifungal potency versus the sensitive T. mentagrophytes isolate” value [5] was “weaker but more comparable to the others”, the EC50 [6] was 4.7 nM and the IC50 [7] was 36 ± 12.8 nM.

For (±)-phenylahistin, the “major metabolites P1 and P3, share of the recovered metabolites” value (human hepatic P450s) was “more than 60%” and the metabolites detected (human hepatic P450s) was “at least seven metabolites were detected”.

In the case of CC(=O)O[C@H]1C(=O)[C@@]2(C)[C@H]([C@H](OC(=O)c3ccccc3)[C@]3(O)C[C@H](OC(=O)[C@H](O)[C@@H](NC(=O)c4ccccc4)c4ccccc4)C(C)=C1C3(C)C)[C@]1(OC(C)=O)CO[C@@H]1C[C@@H]2O [Taxol, reference compound], the IC50 ([8]; Homo sapiens, NCI/ADR-RES, read-out: MCF-7/ADR Resistant IC 50 nM, Table 15) is reported as > 100 nM, the “MCF-7/ADR Resistant Ratio to Sensitive” value ([8]; Table 15) is reported as >>38 and the “potency in resistant MCF-7/ADR vs sensitive MCF-7” value ([8]; in words) is reported as “virtually inactive in the resistant cell line”. The IC50 ([9]; Homo sapiens, MCF7/Taxol, Table 15, read-out: MCF-7 Sensitive IC50) was 2.6 nM, the “potency in the sensitive MCF-7 cell line” value ([9]; in words) was “low nanomolar potency” and the “microtubule depolymerization in HuVEC cells” value (HuVEC) was “did not induce microtubule depolymerization”. For the same compound, the “effect of Cyclosporin A (CsA) treatment” value ([2]; CsA pretreatment) was “restored the sensitivity to taxol”, the “potency in the resistant MES-SA/DX5 line vs the sensitive line” value ([2]; in words) was “virtually inactive” and the “Ratio No CsA” value [10] was 0.6 and 0.4.

For CC(=O)O[C@@]12CO[C@@H]1C[C@H](O)[C@@]1(C)C(=O)[C@H](O)C3=C(C)[C@@H](OC(=O)[C@H](O)[C@@H](NC(=O)OC(C)(C)C)c4ccccc4)C[C@@](O)([C@@H](OC(=O)c4ccccc4)[C@H]21)C3(C)C [Taxotere, reference compound], the “Tumor Growth Inhibition (%) Reference Agent” value [11, 14] was 26%, the “Tumor Regression (#/total) Reference Agent” value [11, 14] was 0/10 and the TGI ([11]; taxotere alone) was 26.1%. The “Tumor Regression (#/total) Reference Agent” value (MCF-7 human breast tumor) was 0/20 and the “TGI vs NCI criterion” value [12] was “did not reach the NCI established criterion for a positive effect”.

From patent US8129527B2, “Analogs of dehydrophenylahistins and their therapeutic use” (Nereus Pharmacuticals, Inc., priority 2006, dated 2012)
